Experimental data taken from US20250243196A1, “CITRON KINASE INHIBITORS” (The Cleveland Clinic Foundation, priority 2021, published 2025).

Assays:
Type in all cases: biochemical
CK1ε(h) = CK1ε(h) (Homo sapiens (Human), UniProt P49674); test: KinaseProfiler panel; set-up: dose or concentration left out as unconfirmed; details: activity remaining
[1] = molecular target: PI3 Kinase (p110a/p85a)(h) (Homo sapiens (Human), UniProt P42336); test: KinaseProfiler panel; set-up: dose or concentration left out as unconfirmed; details: activity remaining
Mnk2 = Mnk2 (Homo sapiens (Human), UniProt Q9HBH9); test: KinaseProfiler radiometric assay (14-664KP); details: mean of at least two independent experiments
From the text: (§1) In another aspect, disclosed is a method of inhibiting citron kinase in a sample, comprising contacting the sample with a compound described herein (e.g., a compound of formula (I) or a pharmaceutically acceptable salt thereof), or a pharmaceutical composition described herein (e.g., a pharmaceutical composition comprising a compound of formula (I) or a pharmaceutically acceptable salt thereof), in an amount effective to inhibit citron kinase. In some embodiments, the step of contacting the sample with the compound comprises administering the compound to a subject (e.g., a subject) suffering from cancer. Methods of determining kinase inhibition are well known in the art. For example, kinase activity of an enzyme and the inhibitory capacity of a test compound can be determined by measuring enzyme specific phosphorylation of a substrate. Commercial assays and kits can be employed. For example, kinase inhibition can be determined using a radiometric binding assay, such as using KinaseProfiler™ technology (Eurofins Discovery). This assay method directly detects product formation without the use of modified substrates or coupling enzymes. […]
(§2) The effect of various compounds on the inhibition of other kinases has also been determined. Table 2 reports measured IC50 values; value units are nanomolar inhibition.

PASK(h) = PASK(h) (Homo sapiens (Human), UniProt Q96RG2); test: KinaseProfiler panel; set-up: dose or concentration left out as unconfirmed; details: activity remaining
PKCγ(h) = PKCγ(h) (Homo sapiens (Human), UniProt P05129); test: KinaseProfiler panel; set-up: dose or concentration left out as unconfirmed; details: activity remaining
PI3KC2a(h) = PI3KC2a(h) (Homo sapiens (Human), UniProt O00443); test: KinaseProfiler panel; set-up: dose or concentration left out as unconfirmed; details: activity remaining
Pim-3(h) = Pim-3(h) (Homo sapiens (Human), UniProt Q86V86); test: KinaseProfiler panel; set-up: dose or concentration left out as unconfirmed; details: activity remaining
MEKK3(h) = MEKK3(h) (Homo sapiens (Human), UniProt Q99759); test: KinaseProfiler panel; set-up: dose or concentration left out as unconfirmed; details: activity remaining
ErbB4(h) = ErbB4(h) (Homo sapiens (Human), UniProt Q15303); test: KinaseProfiler panel; set-up: dose or concentration left out as unconfirmed; details: activity remaining
HIPK2(h) = HIPK2(h) (Homo sapiens (Human), UniProt Q9H2X6); test: KinaseProfiler panel; set-up: dose or concentration left out as unconfirmed; details: activity remaining
FGFR3(h) = FGFR3(h) (Homo sapiens (Human), UniProt P22607); test: KinaseProfiler panel; set-up: dose or concentration left out as unconfirmed; details: activity remaining
PRAK(h) = PRAK(h) (Homo sapiens (Human), UniProt Q8IW41); test: KinaseProfiler panel; set-up: dose or concentration left out as unconfirmed; details: activity remaining
IR(h), activated = IR(h), activated (Homo sapiens (Human), UniProt P06213); test: KinaseProfiler panel; set-up: dose or concentration left out as unconfirmed; details: activity remaining
NEK7(h) = NEK7(h) (Homo sapiens (Human), UniProt Q8TDX7); test: KinaseProfiler panel; set-up: dose or concentration left out as unconfirmed; details: activity remaining
ALK6(h) = ALK6(h) (Homo sapiens (Human), UniProt O00238); test: KinaseProfiler panel; set-up: dose or concentration left out as unconfirmed; details: activity remaining
TSSK1(h) = TSSK1(h) (Homo sapiens (Human), UniProt Q9BXA7); test: KinaseProfiler panel; set-up: dose or concentration left out as unconfirmed; details: activity remaining
CaMKIIβ(h) = CaMKIIβ(h) (Homo sapiens (Human), UniProt Q13554); test: KinaseProfiler panel; set-up: dose or concentration left out as unconfirmed; details: activity remaining
HIPK4 = HIPK4 (Homo sapiens (Human), UniProt Q8NE63); test: KinaseProfiler radiometric assay (15-003KP); details: mean of at least two independent experiments
From the text: as §1, §2

STK33(h) = STK33(h) (Homo sapiens (Human), UniProt Q9BYT3); test: KinaseProfiler panel; set-up: dose or concentration left out as unconfirmed; details: activity remaining
VRK2(h) = VRK2(h) (Homo sapiens (Human), UniProt Q86Y07); test: KinaseProfiler panel; set-up: dose or concentration left out as unconfirmed; details: activity remaining
WNK3(h) = WNK3(h) (Homo sapiens (Human), UniProt Q9BYP7); test: KinaseProfiler panel; set-up: dose or concentration left out as unconfirmed; details: activity remaining
PDGFRα(h) = PDGFRα(h) (Homo sapiens (Human), UniProt P16234); test: KinaseProfiler panel; set-up: dose or concentration left out as unconfirmed; details: activity remaining
PhKγ1(h) = PhKγ1(h) (Homo sapiens (Human), UniProt Q16816); test: KinaseProfiler panel; set-up: dose or concentration left out as unconfirmed; details: activity remaining
BIKE(h) = BIKE(h) (Homo sapiens (Human), UniProt Q9NSY1); test: KinaseProfiler panel; set-up: dose or concentration left out as unconfirmed; details: activity remaining
IRAK4(h) = IRAK4(h) (Homo sapiens (Human), UniProt Q9NWZ3); test: KinaseProfiler panel; set-up: dose or concentration left out as unconfirmed; details: activity remaining
MELK(h) = MELK(h) (Homo sapiens (Human), UniProt Q14680); test: KinaseProfiler panel; set-up: dose or concentration left out as unconfirmed; details: activity remaining

Chain of HIPK2(h) (Q9H2X6 whole entry): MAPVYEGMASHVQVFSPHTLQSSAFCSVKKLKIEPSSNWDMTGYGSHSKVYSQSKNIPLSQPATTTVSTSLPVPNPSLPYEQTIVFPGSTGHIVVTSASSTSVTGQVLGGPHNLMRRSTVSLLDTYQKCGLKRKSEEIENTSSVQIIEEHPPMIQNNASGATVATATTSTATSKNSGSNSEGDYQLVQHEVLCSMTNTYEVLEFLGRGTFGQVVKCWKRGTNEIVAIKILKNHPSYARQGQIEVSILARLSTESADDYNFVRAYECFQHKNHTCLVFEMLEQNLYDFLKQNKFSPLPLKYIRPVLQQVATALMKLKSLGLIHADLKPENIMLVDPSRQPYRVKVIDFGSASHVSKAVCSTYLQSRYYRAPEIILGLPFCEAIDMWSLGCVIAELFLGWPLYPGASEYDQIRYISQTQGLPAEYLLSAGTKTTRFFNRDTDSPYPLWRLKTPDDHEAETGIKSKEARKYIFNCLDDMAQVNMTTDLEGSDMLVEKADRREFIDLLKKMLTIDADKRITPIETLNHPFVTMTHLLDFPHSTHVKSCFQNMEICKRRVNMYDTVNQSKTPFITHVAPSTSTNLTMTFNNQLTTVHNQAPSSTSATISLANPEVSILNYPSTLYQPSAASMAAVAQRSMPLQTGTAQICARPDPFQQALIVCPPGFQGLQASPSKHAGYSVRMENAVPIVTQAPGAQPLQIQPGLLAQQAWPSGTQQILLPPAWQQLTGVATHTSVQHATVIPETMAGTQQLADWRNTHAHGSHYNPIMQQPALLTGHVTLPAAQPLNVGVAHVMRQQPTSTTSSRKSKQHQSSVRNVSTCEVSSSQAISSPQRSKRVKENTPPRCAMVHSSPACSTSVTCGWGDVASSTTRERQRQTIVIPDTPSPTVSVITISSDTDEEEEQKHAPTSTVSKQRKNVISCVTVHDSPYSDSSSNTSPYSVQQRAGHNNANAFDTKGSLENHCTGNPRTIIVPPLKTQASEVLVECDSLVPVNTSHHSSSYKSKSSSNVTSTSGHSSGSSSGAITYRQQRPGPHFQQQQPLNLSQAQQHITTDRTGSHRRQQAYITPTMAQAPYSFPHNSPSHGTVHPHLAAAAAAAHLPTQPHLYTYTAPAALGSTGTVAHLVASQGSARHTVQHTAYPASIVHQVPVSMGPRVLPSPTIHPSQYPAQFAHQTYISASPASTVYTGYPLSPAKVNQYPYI
Chain of TSSK1(h) (Q9BXA7 whole entry): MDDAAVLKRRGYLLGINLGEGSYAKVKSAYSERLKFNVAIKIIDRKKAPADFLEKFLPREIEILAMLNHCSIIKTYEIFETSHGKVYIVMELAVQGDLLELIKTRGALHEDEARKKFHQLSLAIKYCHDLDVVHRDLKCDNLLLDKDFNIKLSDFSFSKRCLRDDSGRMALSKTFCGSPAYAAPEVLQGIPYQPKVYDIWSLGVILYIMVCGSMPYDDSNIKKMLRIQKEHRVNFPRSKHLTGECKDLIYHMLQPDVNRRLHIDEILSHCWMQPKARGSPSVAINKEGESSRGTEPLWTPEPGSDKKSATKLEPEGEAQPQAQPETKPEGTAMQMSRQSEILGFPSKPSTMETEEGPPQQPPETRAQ
Chain of WNK3(h) (Q9BYP7 whole entry): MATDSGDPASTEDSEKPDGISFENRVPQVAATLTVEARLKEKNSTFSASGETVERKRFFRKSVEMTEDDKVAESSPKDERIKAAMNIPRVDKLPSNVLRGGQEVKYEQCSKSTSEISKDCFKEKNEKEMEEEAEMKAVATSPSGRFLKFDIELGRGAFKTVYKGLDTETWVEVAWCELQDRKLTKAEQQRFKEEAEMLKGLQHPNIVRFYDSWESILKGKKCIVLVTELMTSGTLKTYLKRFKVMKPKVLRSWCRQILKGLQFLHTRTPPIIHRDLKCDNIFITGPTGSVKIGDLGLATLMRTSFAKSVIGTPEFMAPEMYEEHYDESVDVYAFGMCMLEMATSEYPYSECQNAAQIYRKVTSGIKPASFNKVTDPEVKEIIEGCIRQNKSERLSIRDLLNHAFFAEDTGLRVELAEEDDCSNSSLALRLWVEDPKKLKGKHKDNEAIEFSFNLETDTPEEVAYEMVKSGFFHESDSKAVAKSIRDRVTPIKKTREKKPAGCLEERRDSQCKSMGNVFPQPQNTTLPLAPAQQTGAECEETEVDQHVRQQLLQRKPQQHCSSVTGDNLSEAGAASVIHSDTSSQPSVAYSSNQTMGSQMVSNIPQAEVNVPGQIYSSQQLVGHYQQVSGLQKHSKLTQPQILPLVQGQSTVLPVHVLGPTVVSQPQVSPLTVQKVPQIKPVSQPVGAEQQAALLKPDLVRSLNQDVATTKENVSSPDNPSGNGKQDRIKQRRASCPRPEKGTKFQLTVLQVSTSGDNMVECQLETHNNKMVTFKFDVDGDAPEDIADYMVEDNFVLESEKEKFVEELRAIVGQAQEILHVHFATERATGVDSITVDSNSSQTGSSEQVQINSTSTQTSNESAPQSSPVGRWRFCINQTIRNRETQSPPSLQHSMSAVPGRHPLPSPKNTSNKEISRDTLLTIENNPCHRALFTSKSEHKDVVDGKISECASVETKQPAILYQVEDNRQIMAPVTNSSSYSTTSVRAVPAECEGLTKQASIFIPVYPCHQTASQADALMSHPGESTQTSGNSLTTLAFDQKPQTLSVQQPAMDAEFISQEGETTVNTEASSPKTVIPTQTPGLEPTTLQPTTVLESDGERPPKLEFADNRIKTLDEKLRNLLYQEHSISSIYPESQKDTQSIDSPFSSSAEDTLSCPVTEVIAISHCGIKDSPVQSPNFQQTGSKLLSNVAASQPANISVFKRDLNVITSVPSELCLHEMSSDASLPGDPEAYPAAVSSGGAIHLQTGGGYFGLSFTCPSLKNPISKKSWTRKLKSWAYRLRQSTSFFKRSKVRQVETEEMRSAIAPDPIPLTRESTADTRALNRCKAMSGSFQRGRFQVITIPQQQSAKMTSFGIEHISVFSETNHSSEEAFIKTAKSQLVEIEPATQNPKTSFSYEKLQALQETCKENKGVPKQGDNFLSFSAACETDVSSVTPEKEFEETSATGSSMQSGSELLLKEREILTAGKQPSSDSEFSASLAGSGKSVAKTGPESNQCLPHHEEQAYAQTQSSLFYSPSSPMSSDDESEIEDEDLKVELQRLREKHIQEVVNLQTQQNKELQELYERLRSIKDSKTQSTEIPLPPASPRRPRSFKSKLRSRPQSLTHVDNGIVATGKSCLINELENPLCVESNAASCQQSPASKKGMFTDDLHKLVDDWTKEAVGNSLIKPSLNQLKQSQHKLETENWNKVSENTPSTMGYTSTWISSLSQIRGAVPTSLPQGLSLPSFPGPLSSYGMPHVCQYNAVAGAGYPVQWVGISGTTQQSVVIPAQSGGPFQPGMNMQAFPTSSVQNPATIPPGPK
Chain of Mnk2 (Q9HBH9 whole entry): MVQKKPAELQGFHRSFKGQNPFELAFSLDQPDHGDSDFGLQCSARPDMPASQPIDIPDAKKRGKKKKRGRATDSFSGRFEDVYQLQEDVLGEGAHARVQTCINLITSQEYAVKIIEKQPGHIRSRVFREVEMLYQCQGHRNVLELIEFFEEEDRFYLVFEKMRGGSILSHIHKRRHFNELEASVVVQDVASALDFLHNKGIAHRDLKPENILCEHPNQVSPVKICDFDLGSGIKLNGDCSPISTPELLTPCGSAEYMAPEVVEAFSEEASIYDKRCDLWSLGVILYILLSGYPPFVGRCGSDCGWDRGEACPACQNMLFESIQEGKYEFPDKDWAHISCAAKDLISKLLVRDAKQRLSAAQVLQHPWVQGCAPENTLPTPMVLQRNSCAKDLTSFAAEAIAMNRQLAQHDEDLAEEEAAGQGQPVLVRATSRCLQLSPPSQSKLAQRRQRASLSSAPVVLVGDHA
Chain of ALK6(h) (O00238 14-502): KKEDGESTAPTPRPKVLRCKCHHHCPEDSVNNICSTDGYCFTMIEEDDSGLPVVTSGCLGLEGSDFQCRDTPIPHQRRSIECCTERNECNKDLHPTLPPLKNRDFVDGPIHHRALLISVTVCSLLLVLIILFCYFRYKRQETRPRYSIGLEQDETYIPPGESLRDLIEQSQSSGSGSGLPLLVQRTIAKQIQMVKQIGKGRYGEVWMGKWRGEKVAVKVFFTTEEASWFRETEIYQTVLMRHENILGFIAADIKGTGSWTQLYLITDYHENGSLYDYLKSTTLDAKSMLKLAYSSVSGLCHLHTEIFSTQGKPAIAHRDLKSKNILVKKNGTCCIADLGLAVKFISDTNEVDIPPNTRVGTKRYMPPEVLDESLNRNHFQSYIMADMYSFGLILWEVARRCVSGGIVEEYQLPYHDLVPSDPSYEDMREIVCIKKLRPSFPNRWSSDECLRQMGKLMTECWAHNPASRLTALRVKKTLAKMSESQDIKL
Chain of VRK2(h) (Q86Y07 whole entry): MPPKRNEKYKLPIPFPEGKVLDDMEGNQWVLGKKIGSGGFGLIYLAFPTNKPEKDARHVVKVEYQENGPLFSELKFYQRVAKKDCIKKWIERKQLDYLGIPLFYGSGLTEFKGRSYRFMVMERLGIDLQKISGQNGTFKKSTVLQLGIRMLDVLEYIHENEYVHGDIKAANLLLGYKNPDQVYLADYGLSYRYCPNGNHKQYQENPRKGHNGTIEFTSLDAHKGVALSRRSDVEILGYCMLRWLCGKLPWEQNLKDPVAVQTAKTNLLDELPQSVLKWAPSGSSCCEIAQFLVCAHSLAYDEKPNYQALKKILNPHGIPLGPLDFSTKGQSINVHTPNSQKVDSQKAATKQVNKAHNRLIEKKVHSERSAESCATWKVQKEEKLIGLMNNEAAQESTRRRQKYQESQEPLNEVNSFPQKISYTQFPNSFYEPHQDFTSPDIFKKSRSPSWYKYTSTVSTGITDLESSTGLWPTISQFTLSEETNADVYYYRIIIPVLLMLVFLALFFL

Cc1cc2c(-c3ccc(NC(=O)[C@H](N)CC(C)(C)C)cc3C)ccnc2[nH]1 [Compound F-90, (2R)-2-Amino-4,4-dimethyl-N-[3-methyl-4-(2-methyl-1H-pyrrolo[2,3-b]pyridin-4-yl)phenyl]pentanamide]
% Activity (CK1ε(h)): 96% | % Activity [1]: 96% | IC50 (Mnk2): 2180 nM | % Activity (PASK(h)): 72% | % Activity (PKCγ(h)): 97% | % Activity (PI3KC2a(h)): 102% | % Activity (Pim-3(h)): 103% | % Activity (MEKK3(h)): 107% | % Activity (ErbB4(h)): 94% | % Activity (HIPK2(h)): 105% | % Activity (FGFR3(h)): 86% | % Activity (PRAK(h)): 107% | % Activity (IR(h), activated): 92% | % Activity (NEK7(h)): 88% | % Activity (ALK6(h)): 74% | % Activity (TSSK1(h)): 116% | % Activity (CaMKIIβ(h)): 93% | IC50 (HIPK4): 2280 nM | % Activity (STK33(h)): 98% | % Activity (VRK2(h)): 100% | % Activity (WNK3(h)): 85% | % Activity (PDGFRα(h)): 116% | % Activity (PhKγ1(h)): 101% | % Activity (BIKE(h)): 50% | % Activity (IRAK4(h)): 90% | % Activity (MELK(h)): 82%
